In data set [1] the test system is isolated guinea-pig atria. In words: Chronotropic activity in the isolated guinea-pig atrium (spontaneous beating rate of right atrium). Conditions: 15% increase of spontaneous beating rate of right atrium; cumulative addition; 30°C. As to the method: Male Hartley guinea-pig weighing about 500 g was sacrificed and the right atrium was removed. The atrium was mounted vertically in an organ bath containing Krebs-Henseleit solution. The bath medium was maintained at 30°C and was equilibrated with a gas mixture consisting of 95% 0₂ and 5% CO₂. A restintion of 0.5 g was applied. The spontaneous beating rates for the right atrium were recorded by using a heart rate counter. The test compounds were added cumulatively to the bath. ED₁₅ values representing the amount of the compound which produced 15% increases of the spontaneous beating rates for the right atria were caluculated on the basis of the results obtained.

Data set [2] has as its system isolated guinea-pig trachea. In words: Relaxation activity in the isolated guinea-pig trachea (resting tonus, organ bath). Conditions: for EC50: Cavia porcellus, 50% of maximal relaxation (10⁻⁶M isoproterenol), resting tonus, cumulative addition, 37°C, read-out: relaxation activity in the isolated guinea-pig trachea ED₅₀; for relative effectiveness of the compounds to reference A: guinea-pig trachea ED₅₀ relative to reference compound A (theophylline) = 1. As to the method:
Male Hartley guinea-pigs weighing about 500 g were sacrificed and the trachea were removed. The tracheal chain strips were made and the preparations were mounted vertically in an organ bath containing Locke-Ringer solution. The bath medium was maintained at 37°C and was equilibrated with a gas mixture consisting of 95% O₂ and 5% CO₂. Relaxation activities of the test compounds on the resting tonus of the preparations were recorded isotonically. The test compounds were added cumulatively to the bath. ED₅₀ values representing the amount of the compound tested which produces 50% relaxations of the maximal relaxations (10⁻⁶M isoproterenol) were calculated on the basis of the results obtained above.

For data set [3], the system named is isolated dog mesenteric artery. The experiment in a line: Relaxation activity in the isolated dog mesenteric artery (pre-contracted with prostaglandin F2α). The following applies: for EC50: Canis lupus familiaris, 50% of maximal relaxation (10⁻⁴M papaverine), pre-contracted with prostaglandin F₂α 3 × 10⁻⁶ M, 37°C, read-out: relaxation activity in the isolated dog mesenteric artery ED₅₀; for relative effectiveness of the compounds to reference B: dog mesenteric artery ED₅₀ relative to reference compound B (propentofylline) = 1. The method, then: The mesenteric arteries were isolated from mongrel dogs of either sex weighing about 10kg. Each helical strip (2 mm in width and 20 mm in length) was mounted vertically in an organ bath containing Krebs-Henseleit solution. The bath medium was maintained at 37 °C and was equilibrated with a gas mixture consisting of 95% O₂ and 5% […]. A resting tension of 1.0 g was applied and the response was recorded isometrically. The preparations were pre-contracted with prostaglandin F₂ α (3 × 10⁻⁶ M) and the smooth muscle relaxations induced by the test compounds were recorded. The test compounds were added cumulatively to the bath. ED₅₀ values representing the amount of the compound which produces 50% relaxations of the maximal relaxations (10 ⁻⁴M papaverine) were caluculated on the basis of the results obtained above.

In data set [4] the test system is complete cerebral ischemia in mice. The experiment in a line: Protective effect on complete cerebral ischemia in mice (gasping duration after decapitation). Conditions: 50 mg/kg, p.o., 30 minutes before decapitation; male ddY mice. It counts as in vivo. As to the method: Male ddY mice weighing about 25 g were used. Complete cerebral ischemia was produced by the amputation of the cervix between the medulla oblongata and the spinal cord. The time between decapitation and the last gasp was recorded as gasping duration. Test compounds were suspended with 0.5% carboxymethylcellulose except propentofylline which was dissolved in distilled H₂O, and then administered orally 30 minutes before the decapitation. The gasping duration was evaluated at the dose of 50 mg/kg.

A value given as a limit tells only on which side of the number the result lay.

Regarding `Cn1cnc2c1c(=O)n(CCCCC1(C)OCCO1)c(=O)n2C1CC1` [Example 38, 3-Cyclopropyl-3,7-dihydro7-methyl-1-[4-(2-methyl-1,3-dioxolan-2-yl)butyl]-1H-purine-2,6-dione], the “chronotropic activity in the isolated guinea-pig atria ED₁₅” value (“chronotropic activity” below) in data set [1] is more than 10 × 10⁻⁵ M.
With `CCCCn1c(=O)c2c(ncn2CC2(C)OCCO2)n(C2CC2)c1=O` [Example 40, 1-n-Butyl-3-cyclopropyl-3,7-dihydro-7-[(2-methyl-1,3-dioxolan-2-yl)methyl]-1H-purine-2,6-dione], in data set [2], the EC50 turned out to be 16 µM and the “relative effectiveness of the compounds to reference A” value worked out at 1.8. Moreover, the “chronotropic activity” value in data set [1] was more than 10 × 10⁻⁵ M.
For `CC(=O)Cn1c(=O)c2c(ncn2C)n(C2CC2)c1=O` [Example 3, 3-Cyclopropyl-3,7-dihydro-7-methyl-1-(2-oxopropyl)-1H-purine-2,6-dione], the “chronotropic activity” value in data set [1] is given as more than 10 × 10⁻⁵ M.
With `CC(=O)CCCCn1c(=O)c2c(ncn2C)n(C2CC2)c1=O` [Example 6, 3-Cyclopropyl-3,7-dihydro-7-methyl-1-(5-oxohexyl)-1H-purine-2,6-dione], in data set [3], the EC50 amounted to 15 µM and the “relative effectiveness of the compounds to reference B” value is on record as 2.5. The “chronotropic activity” value in data set [1] was more than 10 × 10⁻⁵ M.
For the compound `CCCCCn1cnc2c1c(=O)n(CCCCC(C)=O)c(=O)n2C1CC1` [Example 16, 3-Cyclopropyl-3,7-dihydro-1-(5-oxohexyl)-7-n-pentyl-1H-purine-2,6-dione], in data set [2], the EC50 came out at 23 µM and the “relative effectiveness of the compounds to reference A” value came to 1.2. The “protective effect on complete cerebral iscehemia in mice gasping duration” value (from here on “protective effect”) in data set [4] is recorded as 107.8%. Also, in data set [1], the “chronotropic activity” value is listed as more than 10 × 10⁻⁵ M.
Consider `CCn1c(=O)c2c(ncn2CC(C)=O)n(C2CC2)c1=O` [Example 26, 3-Cyclopropyl-1-ethyl-3,7-dihydro-7-(2-oxopropyl)-1H-purine-2,6-dione], for which, in data set [2], the EC50 amounted to 14 µM and the “relative effectiveness of the compounds to reference A” value came to 2.0. In data set [3], the EC50 was 10 µM and the “relative effectiveness of the compounds to reference B” value was determined as 3.8.
Take `Cn1c(=O)c2[nH]cnc2n(C)c1=O` [Reference compound A, theophylline, reference compound]: in data set [2], the EC50 was determined as 28 µM and the “relative effectiveness of the compounds to reference A” value is on record as 1. Also, the “chronotropic activity” value in data set [1] came to 7.6 × 10⁻⁵ M.
As for `CCCCn1cnc2c1c(=O)n(CCCCC(C)=O)c(=O)n2C1CC1` [Example 15, 7-n-Butyl-3-cyclopropyl-3,7-dihydro-1-(5-oxohexyl)-1H-purine-2,6-dione], in data set [2], the EC50 turned out to be 18 µM and the “relative effectiveness of the compounds to reference A” value was determined as 1.6. In data set [4], the “protective effect” value is reported as 112.3%. For the same compound, in data set [3], the EC50 was determined as 36 µM and the “relative effectiveness of the compounds to reference B” value worked out at 1.1. In data set [1], the “chronotropic activity” value is recorded as more than 10 × 10⁻⁵ M.
Consider `CCCCCCn1cnc2c1c(=O)n(CCCCC(C)=O)c(=O)n2C1CC1` [Example 17, 3-Cyclopropyl-7-n-hexyl-3,7-dihydro-1-(5-oxohexyl)-1H-purine-2,6-dione], for which, in data set [2], the EC50 is 11 µM and the “relative effectiveness of the compounds to reference A” value stood at 2.5. Also, in data set [4], the “protective effect” value came out at 106.8%. Also, in data set [3], the EC50 is 18 µM and the “relative effectiveness of the compounds to reference B” value turned out to be 2.1. The “chronotropic activity” value in data set [1] was more than 10 × 10⁻⁵ M.
`CC(=O)CCCCn1cnc2c1c(=O)n(C)c(=O)n2C1CC1` [Example 25, 3-Cyclopropyl-3,7-dihydro-1-methyl-7-(5-oxohexyl)-1H-purine-2,6-dione]: in data set [1], the “chronotropic activity” value is more than 10 × 10⁻⁵ M.
As for `CCCCn1c(=O)c2c(ncn2CC(C)=O)n(C2CC2)c1=O` [Example 30, 1-n-Butyl-3-cyclopropyl-3,7-dihydro-7-(2-oxopropyl)-1H-purine-2,6-dione], in data set [2], the EC50 came to 1.5 µM and the “relative effectiveness of the compounds to reference A” value came out at 19. In addition, in data set [3], the EC50 turned out to be 0.56 µM and the “relative effectiveness of the compounds to reference B” value turned out to be 68. In addition, the “chronotropic activity” value in data set [1] is recorded as more than 10 × 10⁻⁵ M.
On to `CCCn1cnc2c1c(=O)n(CCCCC(C)=O)c(=O)n2C` [Reference compound B, propentofylline, reference compound], for which, in data set [4], the “protective effect” value was determined as 106.4%. Besides, in data set [3], the EC50 stood at 38 µM and the “relative effectiveness of the compounds to reference B” value is 1. In addition, in data set [1], the “chronotropic activity” value is on record as 5.1 × 10⁻⁵ M.
With `CCCCCCn1c(=O)c2c(ncn2CC(C)=O)n(C2CC2)c1=O` [Example 34, 3-Cyclopropyl-1-n-hexyl-3,7-dihydro-7-(2-oxopropyl)-1H-purine-2,6-dione], in data set [2], the EC50 was determined as 6 µM and the “relative effectiveness of the compounds to reference A” value is listed as 4.7. Further, in data set [3], the EC50 stood at 0.64 µM and the “relative effectiveness of the compounds to reference B” value was 59. Moreover, the “chronotropic activity” value in data set [1] is recorded as more than 10 × 10⁻⁵ M.
